This note sets out measurements from publication PMC3876893 (Journal of the American Chemical Society, 2013).

This assay concerns the target CalE8 (Micromonospora echinospora, UniProt Q8KNG1). Put plainly: in vitro reconstitution, HPLC/LCMS of base-released polyketides. Type of assay: biochemical. The following applies: NADPH co-substrate (0.5 mM each), pH 7.0, 24 °C, no CalE7 thioesterase.

Sequence of CalE8 (Q8KNG1 1-1919): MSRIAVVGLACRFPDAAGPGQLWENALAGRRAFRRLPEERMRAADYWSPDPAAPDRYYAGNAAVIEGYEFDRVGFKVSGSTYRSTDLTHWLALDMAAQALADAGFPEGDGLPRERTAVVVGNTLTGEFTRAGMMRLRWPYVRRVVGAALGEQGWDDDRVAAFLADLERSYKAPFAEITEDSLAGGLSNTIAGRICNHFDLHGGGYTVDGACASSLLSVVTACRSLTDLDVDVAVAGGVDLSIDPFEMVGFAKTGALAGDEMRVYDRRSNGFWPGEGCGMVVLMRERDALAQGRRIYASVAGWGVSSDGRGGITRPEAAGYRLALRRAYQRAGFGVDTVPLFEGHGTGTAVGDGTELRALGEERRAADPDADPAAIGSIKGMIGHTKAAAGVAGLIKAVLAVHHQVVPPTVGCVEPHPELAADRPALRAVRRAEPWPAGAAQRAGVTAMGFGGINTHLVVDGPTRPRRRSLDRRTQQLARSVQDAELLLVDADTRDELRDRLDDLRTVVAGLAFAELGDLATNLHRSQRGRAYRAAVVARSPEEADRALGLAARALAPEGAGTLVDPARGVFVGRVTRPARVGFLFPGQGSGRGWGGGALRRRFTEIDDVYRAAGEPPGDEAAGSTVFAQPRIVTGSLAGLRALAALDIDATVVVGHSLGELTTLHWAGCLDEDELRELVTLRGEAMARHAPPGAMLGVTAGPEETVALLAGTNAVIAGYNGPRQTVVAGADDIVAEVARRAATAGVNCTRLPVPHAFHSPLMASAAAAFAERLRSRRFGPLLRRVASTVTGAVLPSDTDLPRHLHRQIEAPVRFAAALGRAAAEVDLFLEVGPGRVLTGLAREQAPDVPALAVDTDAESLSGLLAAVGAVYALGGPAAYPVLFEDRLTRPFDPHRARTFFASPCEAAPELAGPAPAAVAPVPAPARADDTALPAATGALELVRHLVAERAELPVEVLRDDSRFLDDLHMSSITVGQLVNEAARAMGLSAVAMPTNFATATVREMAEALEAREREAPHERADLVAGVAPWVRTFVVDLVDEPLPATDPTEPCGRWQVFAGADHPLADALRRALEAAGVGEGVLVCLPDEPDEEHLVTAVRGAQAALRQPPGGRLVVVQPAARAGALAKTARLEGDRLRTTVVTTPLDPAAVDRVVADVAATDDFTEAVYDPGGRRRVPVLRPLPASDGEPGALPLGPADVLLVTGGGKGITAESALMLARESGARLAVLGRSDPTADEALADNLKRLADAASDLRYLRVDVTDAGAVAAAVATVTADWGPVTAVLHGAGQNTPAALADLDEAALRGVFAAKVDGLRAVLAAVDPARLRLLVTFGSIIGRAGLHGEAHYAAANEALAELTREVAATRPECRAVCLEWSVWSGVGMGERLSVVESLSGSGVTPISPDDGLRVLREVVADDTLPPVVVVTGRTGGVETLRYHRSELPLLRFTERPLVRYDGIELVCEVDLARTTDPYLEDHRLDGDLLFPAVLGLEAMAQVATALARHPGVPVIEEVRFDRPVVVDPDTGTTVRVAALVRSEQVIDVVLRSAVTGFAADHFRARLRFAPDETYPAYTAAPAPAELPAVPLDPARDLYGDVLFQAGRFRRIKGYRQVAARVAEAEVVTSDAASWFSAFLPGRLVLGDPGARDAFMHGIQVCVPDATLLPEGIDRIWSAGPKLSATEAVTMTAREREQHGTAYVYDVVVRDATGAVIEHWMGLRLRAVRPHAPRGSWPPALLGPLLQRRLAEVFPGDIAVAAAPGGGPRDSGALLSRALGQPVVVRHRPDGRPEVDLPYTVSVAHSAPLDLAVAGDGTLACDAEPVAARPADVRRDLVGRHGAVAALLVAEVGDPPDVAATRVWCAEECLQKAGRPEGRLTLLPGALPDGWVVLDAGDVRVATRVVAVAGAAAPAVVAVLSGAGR

Take `CC(=O)NCCSC(=O)CC(=O)O` [malonyl-SNAc]: the “in vitro reconstitution, HPLC/LCMS of base-released polyketides” value is given as “polyketide profiles of CalE8 are consistent when MalCoA is replaced by malonyl-SNAc (MalSNAc)”.
